The values below come from ChEMBL document CHEMBL1255206, “Design and synthesis of a new class of malonyl-CoA decarboxylase inhibitors with anti-obesity and anti-diabetic activities” (Bioorg Med Chem Lett, 2010).

Test [1] addresses T1, Malonyl-CoA decarboxylase, mitochondrial (Mus musculus, UniProt Q99J39).
T1 sequence (Q99J39 whole entry): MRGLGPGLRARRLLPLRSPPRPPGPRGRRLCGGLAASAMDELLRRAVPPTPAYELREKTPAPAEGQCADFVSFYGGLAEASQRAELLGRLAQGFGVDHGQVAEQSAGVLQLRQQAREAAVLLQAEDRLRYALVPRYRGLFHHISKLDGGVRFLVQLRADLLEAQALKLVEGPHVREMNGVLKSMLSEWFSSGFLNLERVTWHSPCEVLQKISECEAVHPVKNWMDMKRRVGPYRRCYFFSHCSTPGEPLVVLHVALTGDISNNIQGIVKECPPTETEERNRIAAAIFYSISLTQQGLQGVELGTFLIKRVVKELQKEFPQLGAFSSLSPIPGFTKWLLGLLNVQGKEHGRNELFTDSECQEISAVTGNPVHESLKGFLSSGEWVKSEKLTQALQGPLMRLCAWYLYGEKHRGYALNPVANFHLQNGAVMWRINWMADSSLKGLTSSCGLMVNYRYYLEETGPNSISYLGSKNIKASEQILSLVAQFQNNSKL
Description: Inhibition of MCD in mouse hepatocytes by whole cell assay. The format is cell-based, Hepatocyte.

Test [2] has as its system Mus musculus. Description: Antiobesity activity in C57B6N mouse assessed as change in body weight at 30 mg/kg, po. The format is functional.
Test [3] has as its system Mus musculus. Description: Antidiabetic activity in C57B6N mouse assessed as decrease in beta-hydroxybutyrate at 30 mg/kg, po. The format is functional. More on the design: scale not given: the % may be the effect or the level left.
The test system of test [4] is Mus musculus. Description: Antiobesity activity in C57B6N mouse assessed as change in hyphalamic malonyl-coA level at 100 mg/kg, po. It is filed as functional.
Test [5] has as its system Mus musculus. The test can be described thus: Antiobesity activity in C57B6N mouse assessed as change in chronic food intake at 100 mg/kg, po. It is filed as functional.
Test [6] concerns Mus musculus. The test can be described thus: Antiobesity activity in C57B6N mouse assessed as change in body weight at 100 mg/kg, po. The format is functional.
Test [7] relates to Mus musculus. Description: Antiobesity activity in C57B6N mouse assessed as change in hyphalamic malonyl-coA level at 30 mg/kg, po. It is filed as functional.
Test [8] has as its system Mus musculus. Description: Antidiabetic activity in C57B6N mouse assessed as blood glucose correction at 30 mg/kg, po. It is filed as functional.
In test [9] the test system is Mus musculus. Description: Antiobesity activity in C57B6N mouse assessed as change in chronic food intake at 30 mg/kg, po. The format is functional.
Test [10] has as its system Mus musculus. The test can be described thus: Antidiabetic activity in C57B6N mouse assessed as decrease in beta-hydroxybutyrate at 3 mg/kg, po. The format is functional. Details: scale not given: the % may be the effect or the level left.
The test system of test [11] is Mus musculus. The test can be described thus: Antidiabetic activity in C57B6N mouse assessed as decrease in beta-hydroxybutyrate at 10 mg/kg, po. The format is functional. Details: scale not given: the % may be the effect or the level left.
For test [12], the system named is Mus musculus. The test can be described thus: Antidiabetic activity in C57B6N mouse assessed as blood glucose correction at 10 mg/kg, po. It is filed as functional.
For test [13], the system named is Mus musculus. Description: Antidiabetic activity in C57B6N mouse assessed as blood glucose correction at 3 mg/kg, po. The format is functional.
In test [14] the target is T2, Malonyl-CoA decarboxylase, mitochondrial (Homo sapiens, UniProt O95822).
T2 sequence (O95822 whole entry): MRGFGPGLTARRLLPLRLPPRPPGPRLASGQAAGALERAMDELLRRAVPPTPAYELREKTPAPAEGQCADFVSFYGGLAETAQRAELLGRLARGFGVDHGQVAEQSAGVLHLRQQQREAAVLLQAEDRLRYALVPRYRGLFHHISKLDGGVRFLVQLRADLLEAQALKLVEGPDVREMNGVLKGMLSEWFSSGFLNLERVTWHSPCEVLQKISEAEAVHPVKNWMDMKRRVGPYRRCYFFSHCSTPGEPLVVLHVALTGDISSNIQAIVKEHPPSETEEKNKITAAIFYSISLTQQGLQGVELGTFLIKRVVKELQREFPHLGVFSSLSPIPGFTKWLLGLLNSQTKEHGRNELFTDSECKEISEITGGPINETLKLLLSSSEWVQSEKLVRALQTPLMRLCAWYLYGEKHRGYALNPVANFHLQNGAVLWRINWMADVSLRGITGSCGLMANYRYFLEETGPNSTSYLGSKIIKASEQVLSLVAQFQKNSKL
Description: Inhibition of human MCD.

Turning to `OC(c1cnc(C2CCN(c3ccc(F)cc3)CC2)s1)(C(F)(F)F)C(F)(F)F`, the EC50 in test [1] was > 20000 nM.

`NC(=O)c1cccc(N2CCC(c3ncc(C(O)(C(F)(F)F)C(F)(F)F)s3)CC2)c1`: the EC50 in test [1] turned out to be 2000 nM.

As for `NC(=O)C1(c2cccc(C(=O)O)c2)CCN(c2ncc(C(O)(C(F)(F)F)C(F)(F)F)s2)CC1`, the response in [1] was half-maximal at 150 nM (EC50).

Take `CNC(=O)c1cccc(N2CCN(c3ncc(C(O)(C(F)(F)F)C(F)(F)F)s3)CC2)c1`: the Activity in the test with Mus musculus [2] is given as -2.1%; with Mus musculus [3], 65%; in the test on Mus musculus [4] it was 186%; with Mus musculus [5], -12.4%; in the test with Mus musculus [6], 20%; in the test with Mus musculus [7], 65%. Also, the Activity is recorded as 30% in the test on Mus musculus [8] and -1.3% with Mus musculus [9]. A half-maximal effect in test [1] (EC50) was put at 630 nM.

In the case of `CS(=O)(=O)NC(=O)C1(c2ccccc2)CCN(c2ncc(C(O)(C(F)(F)F)C(F)(F)F)s2)CC1`, the Activity in the test on Mus musculus [3] was 60%; with Mus musculus [10], -12%; in the test with Mus musculus [11] it was 53%; in the test with Mus musculus [12], 53%; in the test on Mus musculus [8], 48%; with Mus musculus [13] it was 28%. It took 500 nM to reach a half-maximal effect in test [1] (EC50).

For `NC(=O)c1cccc(C2CCN(c3ncc(C(O)(C(F)(F)F)C(F)(F)F)s3)CC2)c1`, the EC50 in [1] is 950 nM.

Turning to `NC(=O)c1cccc(N2CCN(c3ncc(C(O)(C(F)(F)F)C(F)(F)F)s3)CC2)c1`, the Activity in the test on Mus musculus [2] was -3.3%; with Mus musculus [3] it was 78%; in the test on Mus musculus [4], 36%; in the test with Mus musculus [5], 0.8%; in the test with Mus musculus [6], -2.2%; in the test with Mus musculus [7], 50%. Also, the results for the Activity in the test on Mus musculus [8] and with Mus musculus [9] were 32% and 0.8%, respectively. For the same molecule, in [1], the EC50 stood at 1400 nM.

In test [1], `CNC(=O)C1(c2ccccc2)CCN(c2ncc(C(O)(C(F)(F)F)C(F)(F)F)s2)CC1` returned an EC50 of 640 nM.

In the case of `OC(c1cnc(N2CCN(c3ccc(F)c(F)c3)CC2)s1)(C(F)(F)F)C(F)(F)F`, in test [1], the EC50 is > 20000 nM.

Turning to `Cc1cc(C(O)(C(F)(F)F)C(F)(F)F)ccc1C(Cc1cc[n+]([O-])cc1)c1ccc(OC(F)F)c(OC(F)F)c1` (configuration not stated), the IC50 in test [14] was determined as 13.3 nM.

Consider `O=C(O)c1cccc(C2CCN(c3ncc(C(O)(C(F)(F)F)C(F)(F)F)s3)CC2)c1`, for which a half-maximal response in [1] (EC50) required 230 nM.

As for `NC(=O)C1(c2ccccc2)CCN(c2ncc(C(O)(C(F)(F)F)C(F)(F)F)s2)CC1`, the Activity is -5.5% in the test with Mus musculus [2]; 60% in the test on Mus musculus [3]; 70% with Mus musculus [4]; -5.7% with Mus musculus [5]; 14.3% in the test on Mus musculus [6]; 29% in the test on Mus musculus [7]. For the same molecule, the Activity in the test on Mus musculus [8] is 41%; in the test on Mus musculus [9], -2.4%. Moreover, the EC50 in test [1] worked out at 1100 nM.
